# Laboratory results taken from PubChem BioAssay (NCI).
#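 Values below derive from 48-hour exposures of cells grown in 96-well plates, with endpoints linearly interpolated between the two concentrations bracketing the appropriate inhibition level. TGI is the concentration that stops growth completely.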
# Columns and labels:
# Assay in all cases: NCI tumour cell line growth inhibition, 48 h
# [1] = system: HOP-62 NSCLC
# [2] = system: HOP-92 NSCLC
# [3] = system: HOP-18 NSCLC
# [4] = system: SK-MEL-5 melanoma
# [5] = system: SF-539 CNS
# [6] = system: MALME-3M melanoma
# [7] = system: SN12C renal
# [8] = system: DLD-1 colon
# [9] = system: DMS 114 small cell lung
# [10] = system: NCI-H522 lung
# [11] = system: HCT-15 colon
# [12] = system: UO-31 renal
# [13] = system: SF-268 CNS
# [14] = system: SNB-19 CNS
# [15] = system: DMS 273 small cell lung
# [16] = system: CCRF-CEM leukemia
# [17] = system: RXF-631 renal
# [18] = system: U251 CNS
# [19] = system: OVCAR-8 ovarian
# [20] = system: KM20L2 colon
# [21] = system: UACC-62 melanoma
# [22] = system: ACHN renal
# [23] = system: CAKI-1 renal
# [24] = system: COLO 205 colon
# [25] = system: HL-60(TB) leukemia
# [26] = system: OVCAR-3 ovarian
# [27] = system: HCC-2998 colon
# [28] = system: EKVX NSCLC
# [29] = system: LOX IMVI melanoma
# [30] = system: 786-0 renal
# [31] = system: M19-MEL melanoma
# [32] = system: SR leukemia
# [33] = system: HT29 colon
# [34] = system: TK-10 renal
# [35] = system: LXFL 529 NSCLC
# [36] = system: SF-295 CNS
# [37] = system: A498 renal
# [38] = system: KM12 colon
# [39] = system: OVCAR-5 ovarian
# [40] = system: NCI-H226 lung
# [41] = system: M14 melanoma
# [42] = system: HCT-116 colon
# [43] = system: RPMI-8226 leukemia
# [44] = system: MOLT-4 leukemia
# [45] = system: UACC-257 melanoma
# [46] = system: OVCAR-4 ovarian
# [47] = system: IGROV1 ovarian
# [48] = system: SNB-78 CNS
# [49] = system: NCI-H460 lung
# [50] = system: RXF 393 renal
# [51] = system: SK-OV-3 ovarian
# [52] = system: SW-620 colon
# [53] = system: SK-MEL-28 melanoma
# [54] = system: SNB-75 CNS
# [55] = system: A549 NSCLC
# [56] = system: XF 498 CNS
# [57] = system: SK-MEL-2 melanoma
# [58] = system: K-562 leukemia
# [59] = system: P388 leukemia
# [60] = system: P388/ADR leukemia
# [61] = system: SN12K1 renal
# [62] = system: MCF7 breast
# [63] = system: NCI-H23 lung
# [64] = system: NCI/ADR-RES ovarian
structure (smiles),measurement,setting,value
COC(=O)C1C=CCC2CCCCC21N1CCCC1 (centres undefined),TGI,[1],> 100 µM
same,TGI,[2],> 100 µM
same,TGI,[3],> 100 µM
same,TGI,[4],> 100 µM
same,TGI,[5],> 100 µM
same,TGI,[6],> 100 µM
same,TGI,[7],> 100 µM
same,TGI,[8],> 100 µM
same,TGI,[9],> 100 µM
same,TGI,[10],> 100 µM
same,TGI,[11],> 100 µM
same,TGI,[12],> 100 µM
same,TGI,[13],> 100 µM
same,TGI,[14],> 100 µM
same,TGI,[15],> 100 µM
same,TGI,[16],> 100 µM
same,TGI,[17],> 100 µM
same,TGI,[18],> 100 µM
same,TGI,[19],> 100 µM
same,TGI,[20],> 100 µM
same,TGI,[21],> 100 µM
same,TGI,[22],> 100 µM
same,TGI,[23],> 100 µM
same,TGI,[24],> 100 µM
same,TGI,[25],49.1 µM
same,TGI,[26],> 100 µM
same,TGI,[27],> 100 µM
same,TGI,[28],> 100 µM
same,TGI,[29],> 100 µM
same,TGI,[30],> 100 µM
same,TGI,[31],> 100 µM
same,TGI,[32],> 100 µM
same,TGI,[33],> 100 µM
same,TGI,[34],> 100 µM
same,TGI,[35],> 100 µM
same,TGI,[36],> 100 µM
same,TGI,[37],> 100 µM
same,TGI,[38],> 100 µM
same,TGI,[39],> 100 µM
same,TGI,[40],> 100 µM
same,TGI,[41],> 100 µM
same,TGI,[42],> 100 µM
same,TGI,[43],> 100 µM
same,TGI,[44],> 100 µM
same,TGI,[45],> 100 µM
same,TGI,[46],> 100 µM
same,TGI,[47],> 100 µM
same,TGI,[48],> 100 µM
same,TGI,[49],> 100 µM
same,TGI,[50],> 100 µM
same,TGI,[51],> 100 µM
same,TGI,[52],> 100 µM
same,TGI,[53],> 100 µM
same,TGI,[54],> 100 µM
same,TGI,[55],> 100 µM
CC(=O)Nc1ccc(C2CC(c3ccc([N+](=O)[O-])cc3)=Nc3ccccc3S2)cc1 (centres undefined),TGI,[1],50.8 µM
same,TGI,[3],78.2 µM
same,TGI,[5],33.5 µM
same,TGI,[6],35.1 µM
same,TGI,[7],33 µM
same,TGI,[56],27 µM
same,TGI,[8],32.4 µM
same,TGI,[11],37.2 µM
same,TGI,[12],27.8 µM
same,TGI,[13],77.9 µM
same,TGI,[14],62.4 µM
same,TGI,[15],71.4 µM
same,TGI,[16],56 µM
same,TGI,[17],70 µM
same,TGI,[18],29.8 µM
same,TGI,[19],35.4 µM
same,TGI,[20],47.9 µM
same,TGI,[21],32.1 µM
same,TGI,[22],32.1 µM
same,TGI,[23],77.7 µM
same,TGI,[24],> 100 µM
same,TGI,[25],49.7 µM
same,TGI,[26],67.4 µM
same,TGI,[28],> 100 µM
same,TGI,[29],32.3 µM
same,TGI,[30],31.1 µM
same,TGI,[31],45.6 µM
same,TGI,[32],61.9 µM
same,TGI,[33],28.7 µM
same,TGI,[34],44.4 µM
same,TGI,[35],41.7 µM
same,TGI,[36],35 µM
same,TGI,[37],33.3 µM
same,TGI,[38],30.6 µM
same,TGI,[39],41.5 µM
same,TGI,[40],86.3 µM
same,TGI,[41],27.6 µM
same,TGI,[42],25.1 µM
same,TGI,[44],39.6 µM
same,TGI,[45],29.2 µM
same,TGI,[46],42.2 µM
same,TGI,[57],32.9 µM
same,TGI,[47],67.2 µM
same,TGI,[48],> 100 µM
same,TGI,[49],34.3 µM
same,TGI,[50],34.9 µM
same,TGI,[58],42 µM
same,TGI,[51],87.8 µM
same,TGI,[52],32.3 µM
same,TGI,[53],38.4 µM
same,TGI,[54],> 100 µM
same,TGI,[55],56 µM
C=CCC(O[Si](C)(C)C(C)(C)C)c1cc(O[Si](C)(C)C(C)(C)C)ccc1OC (centres undefined),TGI,[1],> 100 µM
same,TGI,[59],> 100 µM
same,TGI,[2],86.6 µM
same,TGI,[3],> 100 µM
same,TGI,[4],> 100 µM
same,TGI,[5],> 100 µM
same,TGI,[6],> 100 µM
same,TGI,[7],> 100 µM
same,TGI,[56],> 100 µM
same,TGI,[8],> 100 µM
same,TGI,[9],> 100 µM
same,TGI,[60],> 100 µM
same,TGI,[11],> 100 µM
same,TGI,[12],> 100 µM
same,TGI,[13],> 100 µM
same,TGI,[14],> 100 µM
same,TGI,[15],> 100 µM
same,TGI,[16],> 100 µM
same,TGI,[18],> 100 µM
same,TGI,[19],> 100 µM
same,TGI,[20],> 100 µM
same,TGI,[61],> 100 µM
same,TGI,[21],> 100 µM
same,TGI,[62],> 100 µM
same,TGI,[23],> 100 µM
same,TGI,[24],> 100 µM
same,TGI,[25],> 100 µM
same,TGI,[26],> 100 µM
same,TGI,[27],> 100 µM
same,TGI,[28],> 100 µM
same,TGI,[29],> 100 µM
same,TGI,[33],> 100 µM
same,TGI,[36],> 100 µM
same,TGI,[37],> 100 µM
same,TGI,[38],> 100 µM
same,TGI,[39],> 100 µM
same,TGI,[40],> 100 µM
same,TGI,[42],> 100 µM
same,TGI,[43],> 100 µM
same,TGI,[44],> 100 µM
same,TGI,[45],> 100 µM
same,TGI,[46],> 100 µM
same,TGI,[63],> 100 µM
same,TGI,[57],> 100 µM
same,TGI,[47],> 100 µM
same,TGI,[48],> 100 µM
same,TGI,[49],> 100 µM
same,TGI,[50],> 100 µM
same,TGI,[58],> 100 µM
same,TGI,[51],> 96.4 µM
same,TGI,[52],> 100 µM
same,TGI,[53],> 100 µM
same,TGI,[54],> 100 µM
same,TGI,[55],> 100 µM
same,TGI,[64],> 100 µM
O=C(CC1=Nc2nnc(CCCCCCCc3nnc4n3C(=O)C(CC(=O)c3ccc5ccccc5c3)=N4)n2C1=O)c1ccc2ccccc2c1,TGI,[1],> 100 µM
same,TGI,[2],> 100 µM
same,TGI,[3],> 100 µM
same,TGI,[5],> 100 µM
same,TGI,[6],> 100 µM
same,TGI,[7],> 100 µM
same,TGI,[56],> 100 µM
same,TGI,[8],> 100 µM
same,TGI,[9],> 100 µM
same,TGI,[10],> 100 µM
same,TGI,[11],> 100 µM
same,TGI,[12],> 100 µM
same,TGI,[13],> 100 µM
same,TGI,[14],> 100 µM
same,TGI,[15],> 100 µM
same,TGI,[16],> 100 µM
same,TGI,[17],> 100 µM
same,TGI,[18],> 100 µM
same,TGI,[19],> 100 µM
same,TGI,[20],> 100 µM
same,TGI,[21],> 100 µM
same,TGI,[22],> 100 µM
same,TGI,[23],> 100 µM
same,TGI,[24],> 100 µM
same,TGI,[25],> 100 µM
same,TGI,[26],> 100 µM
same,TGI,[27],> 100 µM
same,TGI,[28],> 100 µM
same,TGI,[29],> 100 µM
same,TGI,[30],> 100 µM
same,TGI,[31],> 100 µM
same,TGI,[32],> 100 µM
same,TGI,[33],> 100 µM
same,TGI,[34],> 100 µM
same,TGI,[35],> 100 µM
same,TGI,[36],> 100 µM
same,TGI,[38],> 100 µM
same,TGI,[39],> 100 µM
same,TGI,[40],> 100 µM
same,TGI,[41],> 100 µM
same,TGI,[42],> 100 µM
same,TGI,[43],> 100 µM
same,TGI,[44],> 100 µM
same,TGI,[45],> 100 µM
same,TGI,[46],> 100 µM
same,TGI,[63],> 100 µM
same,TGI,[57],> 100 µM
same,TGI,[47],> 100 µM
same,TGI,[48],> 100 µM
same,TGI,[49],> 100 µM
same,TGI,[50],> 100 µM
same,TGI,[58],> 100 µM
same,TGI,[51],> 100 µM
same,TGI,[52],> 100 µM
same,TGI,[53],> 100 µM
same,TGI,[54],> 100 µM
same,TGI,[55],> 100 µM
